Strand notation (5' to 3'): a small letter for the sugar, then the base; units joined by * are phosphorothioate-linked, units joined directly phosphodiester-linked; [ ] holds rarer units or linkages, { } end groups; capitals alone tell only the bases. e = 2'-O-(2-methoxyethyl) (MOE); [5mC] = 5-methylcytosine; d = 2'-deoxy (DNA)
What was measured:
[1] = system: human Factor 11 mRNA; assay: Dose-dependent inhibition of human Factor 11 in HepG2 cells, lipofectin 2.34-75 nM (Example 5); format: cell-based; conditions: for percent inhibition of human Factor 11 mRNA relative to untreated control cells: ~16 hours
Procedure: (§1) Cells were plated at a density of 10,000 cells per well and transfected using lipofectin reagent with 2.34 nM, 4.69 nM, 9.375 nM, 18.75 nM, 37.5 nM, and 75 nM concentrations of antisense oligonucleotide, as specified in Table 11. After a treatment period of approximately 16 hours, RNA was isolated from the cells and human Factor 11 mRNA levels were measured by quantitative real-time PCR. Human Factor 11 primer probe set RTS 2966 was used to measure mRNA levels. Factor 11 mRNA levels were adjusted according to total RNA content, as measured by RIBOGREEN. Results are presented as percent inhibition of human Factor 11, relative to untreated control cells.

[2] = system: human Factor 11 mRNA; assay: Dose-dependent inhibition of human Factor 11 in cyano primary hepatocytes, electroporation (Example 6); format: cell-based; conditions: ~16 hours
Procedure: Cells were plated at a density of 35,000 cells per well and transfected via electroporation with 0.74 nM, 2.2 nM, 6.7 nM, 20 nM, 60 nM, and 180 nM concentrations of antisense oligonucleotide, as specified in Table 13. After a treatment period of approximately 16 hours, RNA was isolated from the cells and human Factor 11 mRNA levels were measured by quantitative real-time PCR. Human Factor 11 primer probe set RTS 2966 was used to measure mRNA levels. Factor 11 mRNA levels were adjusted according to total RNA content, as measured by RIBOGREEN. Results are presented as percent inhibition of human Factor 11, relative to untreated control cells.

[3] = system: human Factor 11 mRNA; assay: Dose-dependent inhibition of human Factor 11 in HepB3 cells, lipofectin (Example 7); format: cell-based; conditions: for percent inhibition of Factor 11 mRNA relative to untreated control cells: ~16 hours
Procedure: as §1, with “4,000” for “10,000”, “2.3” for “2.34”, “4.7” for “4.69”, “9.4” for “9.375”, “14.” for “11.”, “of” for “of human”

[4] = Tolerability in CD1 mice: organ weight (Example 33); format: in vivo; conditions: 50 mg/kg s.c. twice a week, vs PBS control, normalized to body weight
Procedure: Three days after the last dose was administered to all groups, the mice were sacrificed.

[5] = Tolerability in Sprague-Dawley rats: body weight and organ weight (Example 35); format: in vivo; conditions: 50 mg/kg s.c. twice per week for 6 weeks; for Percent change: Body weight: percent change over the weights at the start of the study; for Percent change in organ weight: Kidney / Percent change in organ weight: Liver / Percent change in organ weight: Spleen: vs saline control, normalized to body weight
From the text: Urine samples were taken before the start of treatment.
The body weights are presented in Table 71 and are expressed as a percent change over the weights taken at the start of the study.

[6] = system: Factor 11 protein; assay: Factor 11 protein in monkey plasma by sandwich ELISA (Example 46); format: in vivo, cynomolgus monkeys; conditions: cynomolgus monkeys, 25 mg/kg
Summary of the method: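 Monkeys (2 male, 2 female per group) dosed s.c. with antisense oligonucleotide at 25 mg/kg, three times weekly in week 1 then twice weekly through week 8; PBS controls. Plasma Factor 11 measured by sandwich ELISA (1:50 dilution, OPD, 490 nm); expressed as % reduction versus PBS.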

[7] = system: IL-1β, IL-6, IFN-γ, TNF-α, IL-8, MIP-1α, MCP-1, MIP-1β, RANTES; assay: Cytokine and chemokine assays in cynomolgus monkeys (Example 46); format: in vivo
Procedure: Groups, each consisting of two male and two female monkeys, were injected subcutaneously with 25 mg/kg of ISIS 416850, ISIS 449709, ISIS 445522, ISIS 449710, ISIS 449707, ISIS 449711, ISIS 449708, 416858, and ISIS 445531. Antisense oligonucleotide was administered to the monkeys at 25 mg/kg three times per week for week 1 and 25 mg/kg twice per week for weeks 2 to 8. A control group, consisting of two male and two female monkeys was injected subcutaneously with PBS according to the same dosing regimen. Body weights were taken 14 days and 7 days before the start of treatment and were then measured weekly throughout the treatment period. Blood samples were collected 14 days and 5 days before the start of treatment and subsequently several times during the dosing regimen for PT and aPTT measurements, and measurement of various hematologic factors. On day 55, the monkeys were euthanized by exsanguination while under deep anesthesia, and organs harvested for further analysis.
Blood samples obtained from all monkey groups were sent to Pierce Biotechnology (Woburn, Mass.) for measurements of chemokine and cytokine levels. Levels of IL-1β, IL-6, IFN-γ, and TNF-α were measured using the respective primate antibodies and levels of IL-8, MIP-1α, MCP-1, MIP-1β and RANTES were measured using the respective cross-reacting human antibodies. Measurements were taken 14 days before the start of treatment and on day 55, when the monkeys were euthanized.

[8] = day-14 (before start of treatment)

416825 (antisense GCCCTTCATGTCTAGGTCCA; 5-10-5 gapmer, further chemistry not given here) [compound 416825]
IC50 [1]: 13 nM | percent inhibition of human Factor 11 mRNA relative to untreated control cells ([1]; 2.34 nM): 4% | percent inhibition of human Factor 11 mRNA relative to untreated control cells ([1]; 4.69 nM): 22% | percent inhibition of human Factor 11 mRNA relative to untreated control cells ([1]; 9.375 nM): 39% | percent inhibition of human Factor 11 mRNA relative to untreated control cells ([1]; 18.75 nM): 57% | percent inhibition of human Factor 11 mRNA relative to untreated control cells ([1]; 37.5 nM): 79% | percent inhibition of human Factor 11 mRNA relative to untreated control cells ([1]; 75 nM): 89% | percent inhibition of human Factor 11 mRNA relative to untreated control cells ([2]; 0.74 nM): 5% | percent inhibition of human Factor 11 mRNA relative to untreated control cells ([2]; 2.2 nM): 22% | percent inhibition of human Factor 11 mRNA relative to untreated control cells ([2]; 6.7 nM): 51% | percent inhibition of human Factor 11 mRNA relative to untreated control cells ([2]; 20 nM): 61% | percent inhibition of human Factor 11 mRNA relative to untreated control cells ([2]; 60 nM): 77% | percent inhibition of human Factor 11 mRNA relative to untreated control cells ([2]; 180 nM): 84% | IC50 [3]: 35 nM | percent inhibition of Factor 11 mRNA relative to untreated control cells ([3]; 2.3 nM): 0% | percent inhibition of Factor 11 mRNA relative to untreated control cells ([3]; 4.7 nM): 15% | percent inhibition of Factor 11 mRNA relative to untreated control cells ([3]; 9.4 nM): 34% | percent inhibition of Factor 11 mRNA relative to untreated control cells ([3]; 18.75 nM): 36% | percent inhibition of Factor 11 mRNA relative to untreated control cells ([3]; 37.5 nM): 53% | percent inhibition of Factor 11 mRNA relative to untreated control cells ([3]; 75 nM): 59% | Percent change in kidney weight ([4]; 2 weeks): −12% | Percent change in liver weight ([4]; 2 weeks): +5% | Percent change in spleen weight ([4]; 2 weeks): −12% | Percent change in kidney weight ([4]; 4 weeks): −12% | Percent change in liver weight ([4]; 4 weeks): +22% | Percent change in spleen weight ([4]; 4 weeks): +19% | Percent change in kidney weight ([4]; 6 weeks): −11% | Percent change in liver weight ([4]; 6 weeks): +13% | Percent change in spleen weight ([4]; 6 weeks): +21% | Percent change: Body weight [5]: −18% | Percent change in organ weight: Kidney [5]: +25% | Percent change in organ weight: Liver [5]: +20% | Percent change in organ weight: Spleen [5]: +245%

416826 (antisense ATGCCCTTCATGTCTAGGTC; 5-10-5 gapmer, further chemistry not given here) [compound 416826]
IC50 [1]: 15 nM | percent inhibition of human Factor 11 mRNA relative to untreated control cells ([1]; 2.34 nM): 15% | percent inhibition of human Factor 11 mRNA relative to untreated control cells ([1]; 4.69 nM): 22% | percent inhibition of human Factor 11 mRNA relative to untreated control cells ([1]; 9.375 nM): 32% | percent inhibition of human Factor 11 mRNA relative to untreated control cells ([1]; 18.75 nM): 54% | percent inhibition of human Factor 11 mRNA relative to untreated control cells ([1]; 37.5 nM): 76% | percent inhibition of human Factor 11 mRNA relative to untreated control cells ([1]; 75 nM): 90% | percent inhibition of human Factor 11 mRNA relative to untreated control cells ([2]; 0.74 nM): 13% | percent inhibition of human Factor 11 mRNA relative to untreated control cells ([2]; 2.2 nM): 24% | percent inhibition of human Factor 11 mRNA relative to untreated control cells ([2]; 6.7 nM): 34% | percent inhibition of human Factor 11 mRNA relative to untreated control cells ([2]; 20 nM): 67% | percent inhibition of human Factor 11 mRNA relative to untreated control cells ([2]; 60 nM): 69% | percent inhibition of human Factor 11 mRNA relative to untreated control cells ([2]; 180 nM): 71% | IC50 [3]: 16 nM | percent inhibition of Factor 11 mRNA relative to untreated control cells ([3]; 2.3 nM): 16% | percent inhibition of Factor 11 mRNA relative to untreated control cells ([3]; 4.7 nM): 28% | percent inhibition of Factor 11 mRNA relative to untreated control cells ([3]; 9.4 nM): 38% | percent inhibition of Factor 11 mRNA relative to untreated control cells ([3]; 18.75 nM): 55% | percent inhibition of Factor 11 mRNA relative to untreated control cells ([3]; 37.5 nM): 64% | percent inhibition of Factor 11 mRNA relative to untreated control cells ([3]; 75 nM): 66% | Percent change in kidney weight ([4]; 2 weeks): −13% | Percent change in liver weight ([4]; 2 weeks): +10% | Percent change in spleen weight ([4]; 2 weeks): −12% | Percent change in kidney weight ([4]; 4 weeks): −7% | Percent change in liver weight ([4]; 4 weeks): +32% | Percent change in spleen weight ([4]; 4 weeks): −5% | Percent change in kidney weight ([4]; 6 weeks): −22% | Percent change in liver weight ([4]; 6 weeks): +33% | Percent change in spleen weight ([4]; 6 weeks): +22% | Percent change: Body weight [5]: −40% | Percent change in organ weight: Kidney [5]: +44% | Percent change in organ weight: Liver [5]: +81% | Percent change in organ weight: Spleen [5]: +537%

ISIS 416858: MOE gapmer, nucleobases 1275 to 1318 of SEQ ID NO: 1 (Table 8) (antisense ACGGCATTGGTGCACAGTTT; MOE gapmer, wing and gap sizes not given here)
Factor 11 protein levels in plasma [6]: time-dependent decrease in protein levels | IFN-γ level ([7]; day 55): 9 pg/mL | IL-1ß level ([7]; day 55): 28 pg/mL | IL-6 level ([7]; day 55): 1 pg/mL | IL-8 level ([7]; day 55): 167 pg/mL | MCP-1 level ([7]; day 55): 512 pg/mL | MIP-1ß level ([7]; day 55): 47 pg/mL | MIP-1α level ([7]; day 55): 11 pg/mL | RANTES level ([7]; day 55): 5925 pg/mL | TNF-α level ([7]; day 55): 15 pg/mL | IFN-γ level [7, 8]: 32 pg/mL | IL-1ß level [7, 8]: 103 pg/mL | IL-6 level [7, 8]: 0 pg/mL | IL-8 level [7, 8]: 224 pg/mL | MCP-1 level [7, 8]: 328 pg/mL | MIP-1ß level [7, 8]: 37 pg/mL | MIP-1α level [7, 8]: 11 pg/mL | RANTES level [7, 8]: 6521 pg/mL | TNF-α level [7, 8]: 4 pg/mL

ISIS 445522: 5-8-5 or 6-8-6 MOE microwalk gapmer (Table 44) (antisense eG*e[5mC]*eA*e[5mC]*eA*dG*dT*dT*dT*d[5mC]*dT*dG*dG*e[5mC]*eA*eG*eG*e[5mC])
Factor 11 protein levels in plasma [6]: time-dependent decrease in protein levels | IFN-γ level ([7]; day 55): 83 pg/mL | IL-1ß level ([7]; day 55): 341 pg/mL | IL-6 level ([7]; day 55): 2 pg/mL | IL-8 level ([7]; day 55): 100 pg/mL | MCP-1 level ([7]; day 55): 592 pg/mL | MIP-1ß level ([7]; day 55): 63 pg/mL | MIP-1α level ([7]; day 55): 22 pg/mL | RANTES level ([7]; day 55): 16154 pg/mL | TNF-α level ([7]; day 55): 18 pg/mL | IFN-γ level [7, 8]: 172 pg/mL | IL-1ß level [7, 8]: 188 pg/mL | IL-6 level [7, 8]: 5 pg/mL | IL-8 level [7, 8]: 32 pg/mL | MCP-1 level [7, 8]: 297 pg/mL | MIP-1ß level [7, 8]: 27 pg/mL | MIP-1α level [7, 8]: 22 pg/mL | RANTES level [7, 8]: 3477 pg/mL | TNF-α level [7, 8]: 16 pg/mL

ISIS 449709: 3-8-3, 4-8-4, 2-10-2, 3-10-3 or 4-10-4 MOE microwalk gapmer (Table 46) (antisense eG*e[5mC]*eA*e[5mC]*dA*dG*dT*dT*dT*d[5mC]*dT*dG*dG*d[5mC]*eA*eG*eG*e[5mC])
Factor 11 protein levels in plasma [6]: time-dependent decrease in protein levels | IFN-γ level ([7]; day 55): 25 pg/mL | IL-1ß level ([7]; day 55): 181 pg/mL | IL-6 level ([7]; day 55): 0 pg/mL | IL-8 level ([7]; day 55): 254 pg/mL | MCP-1 level ([7]; day 55): 507 pg/mL | MIP-1ß level ([7]; day 55): 47 pg/mL | MIP-1α level ([7]; day 55): 17 pg/mL | RANTES level ([7]; day 55): 8958 pg/mL | TNF-α level ([7]; day 55): 8 pg/mL | IFN-γ level [7, 8]: 37 pg/mL | IL-1ß level [7, 8]: 137 pg/mL | IL-6 level [7, 8]: 1 pg/mL | IL-8 level [7, 8]: 34 pg/mL | MCP-1 level [7, 8]: 290 pg/mL | MIP-1ß level [7, 8]: 14 pg/mL | MIP-1α level [7, 8]: 13 pg/mL | RANTES level [7, 8]: 2471 pg/mL | TNF-α level [7, 8]: 9 pg/mL
